Source: US4254128A, “2-Adamantyl hydrazines and biocidal compositions thereof” (Teva Pharmaceutical Industries Ltd., priority 1977, dated 1981)
Structures can show the parent of a compound that is named as a salt.

How the values were obtained:
Leishmania = experiment: Anti leishmania tests, summary; type: cell-based, L. tropica; settings: summary in words
Procedure: (§1) a. amastigotes in peritoneal exudate cells in Mc Coy's medium in vitro at 37° C.
b. promastigotes in Mc Coy's medium in vitro at 27° C.

Pythium = experiment: Antifungal activity in plants, growth on solid agar; type: cell-based; settings: read-out: inhibiting concentration
Procedure: (§2) Antiplant fungal activity was tested as follows:
(§3) Inhibition of growth on solid agar mixed with various concentrations of the tested compounds.

Sclerotinia = experiment: as above; type: cell-based; settings: read-out: inhibiting concentration
Procedure: as §2, §3

S. rolfsii = experiment: as above; type: cell-based; settings: Agroathelia rolfsii, read-out: inhibiting concentration
Procedure: as §2, §3

L. tropica amastigotes = experiment: Anti leishmania test, amastigotes in peritoneal exudate cells in vitro; type: cell-based; settings: 37° C.
Procedure: as §1
+++=clearance of all parasites in 24 hours
++=clearance of all parasites in 48 hours
+=clearance of all parasites in 72 hours
±=Partial clearance of parasites in 72 hours or more
-=No activity against parasites.

[1] = test system: Leptospira canicola Kipod 146; experiment: Anti leptospiral activity (minimal inhibition concentration); type: cell-based; settings: for MIC: Leptospira interrogans, KIPOD146, 240 h; for anti leptospiral activity: summary in words
Procedure: The tests were carried out under the following conditions:
Leptospira: Leptospira canicola Kipod 146
Inoculum: 1-10^5 cells/ml
Incubation time: 10 days, 28° C.
Evaluation: Direct count in dark field microscopy after 4,7 and 10 days.
2 Minimal+0.5% albumin (Pentex)
3 Korthof rich medium with 8% serum.
4 Korthof rich medium with 2% serum.

Row | Compound | activity against Leishmania (Leishmania) | MIC (Pythium) [µg/mL] | MIC (Sclerotinia) [µg/mL] | MIC (S. rolfsii) [µg/mL] | Leishmania amastigote activity score (L. tropica amastigotes; 10 μg) | Leishmania amastigote activity score (L. tropica amastigotes; 100 μg) | MIC ([1]; Korthof + 2% serum) [µg/mL] | MIC ([1]; Korthof + 8% serum) [µg/mL] | MIC ([1]; minimal + Pentex (0.5% albumin)) [µg/mL] | MIC ([1]; minimal medium) [µg/mL] | anti leptospiral activity [1]
1 | NNC1C2CC3CC(C2)CC1C3 (centres unmarked) [Example 18, 2-Adamantylhydrazine hydrochloride] | active | 50 | 50 | 50 | ++ (clearance of all parasites in 48 hours) | +++ (clearance of all parasites in 24 hours) | 12.5 | 125 | 6.25 | 3.12 | active
2 | CN(NC1C2CC3CC(C2)CC1C3)c1cccc(C(F)(F)F)c1 (centres unmarked) [Example 29, 1-(2'-Adamantyl)-2-methyl-2-(m-trifluoromethylphenyl)hydrazine hydrochloride hemihydrate] |  | 50 | 50 | 50 |  |  |  | 6.25 |  | 6.25 | active
